Key:
human orexin 1 receptor = human orexin 1 receptor (Homo sapiens, UniProt O43613); test: Human orexin 1 receptor radioligand binding; conditions: CHO cells stably expressing human orexin 1 receptor; competitive radioligand binding, apparent Ki; read-out: hOX1 Ki
Experimental: (§1) Rat and Human Orexin 1 Receptor Radioligand Binding Studies
(§2) After centrifugation (2K×G, 5 min at 4° C.), the supernatant was aspirated and the pellets frozen and stored at −80° C. […] Each cell pellet from a 15 cm plate was resuspended in 10 mL, stored on ice, and homogenized for 45 sec prior to addition to the reactions. […] The final concentration of DMSO in the reactions is equal to or less than 0.1%. Total and nonspecific binding was determined in the absence and presence of 10 μM almorexant. The total volume of each reaction is 200 μL (20 μL of diluted compounds, 80 μL of [^3H]-(1-(5-(2-fluoro-phenyl)-2-methyl-thiazol-4-yl)-1-((S)-2-(5-phenyl-(1,3,4)oxadiazol-2-ylmethyl)-pyrrolidin-1-yl)-methanone) diluted in PBS and 100 μL of the cell suspension). […] The plates were washed 3 times by aspirating 30 ml PBS through the plates. Plates were dried in 55° C. oven for 60 min, scintillation fluid was added, and the radioactivity was counted on a Topcount (Packard).

rat orexin 1 receptor = rat orexin 1 receptor (Rattus norvegicus, UniProt P56718); test: Rat orexin 1 receptor radioligand binding; conditions: HEK293 cells stably expressing rat orexin 1 receptor; competitive radioligand binding, apparent Ki; read-out: rOX1 Ki
Experimental: as §1, §2

human orexin 2 receptor = human orexin 2 receptor (Homo sapiens (Human), UniProt O43614); test: Human orexin 2 receptor radioligand binding; conditions: HEK293 stably expressing human orexin 2 receptor; [3H]-EMPA competitive binding, apparent Ki; read-out: hOX2 Ki
Experimental: Human Orexin 2 Receptor Radioligand Binding Studies
as §2, with “sec just” for “sec”, “reactions. Competition binding experiments in 96 well polypropylene plates were performed using [^3H]-EMPA (Moraveck Corporation, specific activity=29.6 Ci/mmol), diluted to a 5 nM concentration in PBS (2 nM final concentration).” for “reactions.”, “[^3H]-EMPA” for “[^3H]-(1-(5-(2-fluoro-phenyl)-2-methyl-thiazol-4-yl)-1-((S)-2-(5-phenyl-(1,3,4)oxadiazol-2-ylmethyl)-pyrrolidin-1-yl)-methanone)”

human orexin 2 receptor, sequence (O43614 whole entry): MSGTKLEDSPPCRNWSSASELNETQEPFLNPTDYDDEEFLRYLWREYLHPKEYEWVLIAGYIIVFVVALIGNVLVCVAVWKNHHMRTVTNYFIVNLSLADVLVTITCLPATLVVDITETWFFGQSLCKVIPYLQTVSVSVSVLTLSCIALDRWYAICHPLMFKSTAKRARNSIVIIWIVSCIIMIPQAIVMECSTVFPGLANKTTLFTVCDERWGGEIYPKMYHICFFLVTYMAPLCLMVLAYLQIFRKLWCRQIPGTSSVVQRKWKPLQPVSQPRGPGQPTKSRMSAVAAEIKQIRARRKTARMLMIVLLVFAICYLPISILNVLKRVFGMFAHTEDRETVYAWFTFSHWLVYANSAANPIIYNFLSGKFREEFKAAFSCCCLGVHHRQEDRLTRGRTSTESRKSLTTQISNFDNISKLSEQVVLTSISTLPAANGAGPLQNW

Row | Structure (SMILES) | Ki (human orexin 1 receptor) | Ki (rat orexin 1 receptor) | Ki (human orexin 2 receptor)
1 | CCOc1ccc2cccnc2c1C(=O)N1CC2CC(Oc3ccc(C(F)(F)F)cn3)C1C2 (racemic) [Example 10, (R/S)-(7-ethoxyquinolin-8-yl)(6-((5-(trifluoromethyl)pyridin-2-yl)oxy)-2-azabicyclo[2.2.1]heptan-2-yl)methanone] | 27 nM | 18 nM | 526 nM
2 | O=C(c1ccccc1-n1cnnc1)N1CC2CC(Oc3ccc(C(F)(F)F)cn3)C1C2 (racemic) [Example 21, (R/S)-(2-(4H-1,2,4-triazol-4-yl)phenyl)(6-((5-(trifluoromethyl)pyridin-2-yl)oxy)-2-azabicyclo[2.2.1]heptan-2-yl)methanone] |  | > 10000 nM | > 10000 nM
3 | O=C(c1c(F)cccc1-c1ncccn1)N1C[C@H]2C[C@@H](Oc3ccc(C(F)(F)F)cn3)[C@@H]1C2 [Example 38, (2-fluoro-6-(pyrimidin-2-yl)phenyl)((1S,4R,6R)-6-((5-(trifluoromethyl)pyridin-2-yl)oxy)-2-azabicyclo[2.2.1]heptan-2-yl)methanone] | 8 nM | 8 nM | 690 nM
4 | Cc1cccc(C(=O)N2C[C@H]3C[C@@H](Nc4ccc(C(F)(F)F)cn4)[C@@H]2C3)c1-n1nccn1 [Example 55, (3-methyl-2-(2H-1,2,3-triazol-2-yl)phenyl)((1S,4S,6R)-6-((5-(trifluoromethyl)pyridin-2-yl)amino)-2-azabicyclo[2.2.1]heptan-2-yl)methanone] | 3 nM | 3 nM | 46 nM
5 | Cc1cnc(C(=O)N2CC3CC(Oc4cnc(C(F)(F)F)cn4)C2C3)c(-n2nccn2)c1 (racemic) [Example 4] |  | 837 nM | > 10000 nM
6 | O=C(c1ccccc1-n1nccn1)N1CC2CC(Oc3cnc(C(F)(F)F)cn3)C1C2 (racemic) [Example 1, (R/S)-(2-(2H-1,2,3-triazol-2-yl)phenyl)(6-((5-(trifluoromethyl)pyrazin-2-yl)oxy)-2-azabicyclo[2.2.1]heptan-2-yl)methanone] | 120 nM | 74 nM | 
7 | O=C(c1c(F)cccc1-n1nccn1)N1C[C@H]2C[C@@H](Oc3ccc(C(F)(F)F)cn3)[C@@H]1C2 [Example 46, (2-fluoro-6-(2H-1,2,3-triazol-2-yl)phenyl)((1S,4R,6R)-6-((5-(trifluoromethyl)pyridin-2-yl)oxy)-2-azabicyclo[2.2.1]heptan-2-yl)methanone] | 12 nM | 10 nM | 
8 | O=C(c1ccccc1-n1nccn1)N1C[C@H]2C[C@@H](Nc3ccc(C(F)(F)F)cn3)[C@@H]1C2 [Example 53, (2-(2H-1,2,3-triazol-2-yl)phenyl)((1S,4S,6R)-6-((5-(trifluoromethyl)pyridin-2-yl)amino)-2-azabicyclo[2.2.1]heptan-2-yl)methanone] | 3 nM | 3 nM | 
9 | O=C(c1ccccc1-n1nccn1)N1C[C@H]2C[C@@H](Oc3ncccc3C(F)(F)F)[C@@H]1C2 [Example 51, (2-(2H-1,2,3-triazol-2-yl)phenyl)((1S,4R,6R)-6-((3-(trifluoromethyl)pyridin-2-yl)oxy)-2-azabicyclo[2.2.1]heptan-2-yl)methanone] |  | 294 nM | 676 nM
10 | Cc1cccc(C(=O)N2C[C@H]3C[C@@H](Oc4ccc(C(F)(F)F)cn4)[C@@H]2C3)c1-c1ncco1 [Example 32, (3-methyl-2-(oxazol-2-yl)phenyl)((1S,4R,6R)-6-((5-(trifluoromethyl)pyridin-2-yl)oxy)-2-azabicyclo[2.2.1]heptan-2-yl)methanone] | 4 nM | 3 nM | 
11 | Cc1cccc(C(=O)N2CC3CC(Oc4ccc(C(F)(F)F)cn4)C2C3)c1-n1nccn1 (racemic) [Example 17, (R/S)-(3-methyl-2-(2H-1,2,3-triazol-2-yl)phenyl)(6-((5-(trifluoromethyl)pyridin-2-yl)oxy)-2-azabicyclo[2.2.1]heptan-2-yl)methanone] |  |  | 234 nM
12 | Cc1ccc(-n2nccn2)c(C(=O)N2C[C@H]3C[C@@H](Oc4ncccc4C(F)(F)F)[C@@H]2C3)n1 [Example 52, (6-methyl-3-(2H-1,2,3-triazol-2-yl)pyridin-2-yl)((1S,4R,6R)-6-((3-(trifluoromethyl)pyridin-2-yl)oxy)-2-azabicyclo[2.2.1]heptan-2-yl)methanone] |  | 550 nM | 4000 nM
13 | O=C(c1c(F)cccc1-c1ncccn1)N1C[C@H]2C[C@@H](Oc3ccc(Br)cn3)[C@@H]1C2 [Example 47, ((1S,4R,6R)-6-((5-bromopyridin-2-yl)oxy)-2-azabicyclo[2.2.1]heptan-2-yl)(2-fluoro-6-(pyrimidin-2-yl)phenyl)methanone] | 11 nM | 7 nM | 
14 | O=C(c1c(F)cccc1-n1nccn1)N1CC2CC(Oc3ccc(C(F)(F)F)cn3)C1C2 (racemic) [Example 18, (R/S)-(2-fluoro-6-(2H-1,2,3-triazol-2-yl)phenyl)(6-((5-(trifluoromethyl)pyridin-2-yl)oxy)-2-azabicyclo[2.2.1]heptan-2-yl)methanone] | 23 nM | 25 nM | 
15 | O=C(c1cccc(F)c1-n1nccn1)N1C[C@H]2C[C@@H](Oc3ccc(C(F)(F)F)cn3)[C@@H]1C2 [Example 35, (3-fluoro-2-(2H-1,2,3-triazol-2-yl)phenyl)((1S,4R,6R)-6-((5-(trifluoromethyl)pyridin-2-yl)oxy)-2-azabicyclo[2.2.1]heptan-2-yl)methanone] |  | 8 nM | 
16 | COc1cccc(-n2nccn2)c1C(=O)N1CC2CC(Oc3ccc(C(F)(F)F)cn3)C1C2 (racemic) [Example 15] |  |  | 229 nM
17 | CCOc1ncc2ccccc2c1C(=O)N1CC2CC(Oc3ccc(C(F)(F)F)cn3)C1C2 (racemic) [Example 8, (R/S)-(3-ethoxyisoquinolin-4-yl)(6-((5-(trifluoromethyl)pyridin-2-yl)oxy)-2-azabicyclo[2.2.1]heptan-2-yl)methanone] |  |  | 1450 nM
18 | O=C(c1ccccc1-n1nccn1)N1CC2CC(Oc3ccc(C(F)(F)F)cn3)C1C2 (racemic) [Example 7, (R/S)-(2-(2H-1,2,3-triazol-2-yl)phenyl)(6-((5-(trifluoromethyl)pyridin-2-yl)oxy)-2-azabicyclo[2.2.1]heptan-2-yl)methanone] | 12 nM | 21 nM | 
19 | O=C(c1cccc(F)c1-n1nccn1)N1CC2CC(Oc3ccc(C(F)(F)F)cn3)C1C2 (racemic) [Example 16, (R/S)-(3-fluoro-2-(2H-1,2,3-triazol-2-yl)phenyl)(6-((5-(trifluoromethyl)pyridin-2-yl)oxy)-2-azabicyclo[2.2.1]heptan-2-yl)methanone] |  | 8 nM | 
20 | O=C(c1ccc(F)cc1-c1ncccn1)N1CC2CC(Oc3ccc(C(F)(F)F)cn3)C1C2 (racemic) [Example 20, (R/S)-(4-fluoro-2-(pyrimidin-2-yl)phenyl)(-6-((5-(trifluoromethyl)pyridin-2-yl)oxy)-2-azabicyclo[2.2.1]heptan-2-yl)methanone] |  |  | 2700 nM
21 | Cc1cnn(C)c1-c1ccccc1C(=O)N1C[C@H]2C[C@@H](Oc3ccc(C(F)(F)F)cn3)[C@@H]1C2 [Example 41, (2-(1,4-dimethyl-1H-pyrazol-5-yl)phenyl)((1S,4R,6R)-6-((5-(trifluoromethyl)pyridin-2-yl)oxy)-2-azabicyclo[2.2.1]heptan-2-yl)methanone] |  | 4400 nM | > 10000 nM
22 | COc1c(F)cccc1C(=O)N1C[C@H]2C[C@@H](Oc3ccc(C(F)(F)F)cn3)[C@@H]1C2 [Example 31, (3-fluoro-2-methoxyphenyl)((1S,4R,6R)-6-((5-(trifluoromethyl)pyridin-2-yl)oxy)-2-azabicyclo[2.2.1]heptan-2-yl)methanone] |  | 707 nM | > 10000 nM
23 | O=C(c1ccc(F)cc1-c1ncccn1)N1C[C@H]2C[C@@H](Oc3ccc(C(F)(F)F)cn3)[C@@H]1C2 [Example 26, (4-fluoro-2-(pyrimidin-2-yl)phenyl)((1S,4R,6R)-6-((5-(trifluoromethyl)pyridin-2-yl)oxy)-2-azabicyclo[2.2.1]heptan-2-yl)methanone] |  |  | 2100 nM
24 | O=C(c1ccccc1-n1nccn1)N1C[C@H]2C[C@@H](Oc3ccc(C(F)(F)F)cn3)[C@@H]1C2 [Example 36, (2-(2H-1,2,3-triazol-2-yl)phenyl)((1S,4R,6R)-6-((5-(trifluoromethyl)pyridin-2-yl)oxy)-2-azabicyclo[2.2.1]heptan-2-yl)methanone] | 11 nM | 5 nM | 

Source: patent publication US8969352B2, “Substituted 2-azabicycles and their use as orexin receptor modulators” (Janssen Pharmaceutica NV, priority 2013, dated 2015)
